Laboratory results taken from the NIST ThermoML archive (doi:10.1021/je100369a).

Experiments:
[1] = mn = molality of the nth substance listed, in mol/kg; conditions: 101 kPa, Liquid
[2] = 101.33 kPa, Liquid
[3] = refractive index (Na D-line) (dimensionless); conditions: 101.33 kPa, Liquid, Standard Abbe refractometry

Oc1ccccc1C=NCCN=Cc1ccccc1O [2,2'-[ethylenebis(nitrilomethylidyne)]diphenol] + ClC(Cl)Cl
mass density [kg/m3], [1]
Conditions | m1 = 0.0099 | m1 = 0.03 | m1 = 0.0498 | m1 = 0.0702 | m1 = 0.0904 | m1 = 0.1102 | m1 = 0.1336 | m1 = 0.1501 | m1 = 0.19
283.15 K | 1495.46 | 1493.53 | 1491.63 | 1489.69 | 1487.79 | 1485.95 | 1483.73 | 1482.28 | 1478.69
288.15 K | 1486.15 | 1484.27 | 1482.44 | 1480.56 | 1478.71 | 1476.92 | 1474.75 | 1473.37 | 1469.85
293.15 K | 1476.77 | 1474.97 | 1473.19 | 1471.36 | 1469.56 | 1467.84 | 1465.71 | 1464.38 | 1460.93
298.15 K | 1467.41 | 1465.66 | 1463.95 | 1462.15 | 1460.41 | 1458.74 | 1456.68 | 1455.37 | 1452.05

Oc1ccccc1C=NCCN=Cc1ccccc1O [2,2'-[ethylenebis(nitrilomethylidyne)]diphenol] + C[S+](C)[O-]
mass density [kg/m3], [1]
Conditions | m1 = 0.0098 | m1 = 0.03 | m1 = 0.0502 | m1 = 0.0697 | m1 = 0.0903 | m1 = 0.1097 | m1 = 0.13 | m1 = 0.1502 | m1 = 0.1701 | m1 = 0.1893
288.15 K | 1105.42 | 1105.67 | 1105.93 | 1106.18 | 1106.45 | 1106.71 | 1106.99 | 1107.28 | 1107.55 | 1107.81
298.15 K | 1095.42 | 1095.69 | 1095.96 | 1096.23 | 1096.52 | 1096.79 | 1097.08 | 1097.39 | 1097.66 | 1097.91
308.15 K | 1085.39 | 1085.68 | 1085.97 | 1086.26 | 1086.56 | 1086.85 | 1087.14 | 1087.45 | 1087.75 | 1088.03
318.15 K | 1075.36 | 1075.67 | 1075.98 | 1076.28 | 1076.6 | 1076.9 | 1077.22 | 1077.56 | 1077.84 | 1078.13

ClCCl [dichloromethane]
Conditions | mass density, 283.15 K [kg/m3] | mass density, 288.15 K [kg/m3] | mass density, 293.15 K [kg/m3] | mass density, 298.15 K [kg/m3] | refractive index, 283.15 K | refractive index, 288.15 K | refractive index, 293.15 K | refractive index, 298.15 K
[2] | 1343.65 | 1334.57 | 1325.43 | 1316.27 | – | – | – | –
[3] | – | – | – | – | 1.4305 | 1.4276 | 1.4251 | 1.4219

CN(C)C=O [dimethylformamide]
Conditions | mass density, 288.15 K [kg/m3] | mass density, 298.15 K [kg/m3] | mass density, 308.15 K [kg/m3] | mass density, 318.15 K [kg/m3] | refractive index, 288.15 K | refractive index, 298.15 K | refractive index, 308.15 K | refractive index, 318.15 K
[2] | 953.58 | 944.06 | 934.52 | 924.9 | – | – | – | –
[3] | – | – | – | – | 1.431 | 1.4276 | 1.423 | 1.418

C[S+](C)[O-] [dimethyl sulfoxide]
Conditions | mass density, 288.15 K [kg/m3] | mass density, 298.15 K [kg/m3] | mass density, 308.15 K [kg/m3] | mass density, 318.15 K [kg/m3] | refractive index, 288.15 K | refractive index, 298.15 K | refractive index, 308.15 K | refractive index, 318.15 K
[2] | 1105.3 | 1095.29 | 1085.25 | 1075.21 | – | – | – | –
[3] | – | – | – | – | 1.4793 | 1.4752 | 1.471 | 1.467
